Assay results from article PMC6385122, “Design and Synthesis of Arylamidine Derivatives as Serotonin/Norepinephrine Dual Reuptake Inhibitors” (Molecules, 2019).
Counter-ions that a name gives are not always drawn.

What was measured:
[1] = biological target: T1, NE reuptake (NE transporter) (Rattus norvegicus, UniProt Q63380); assay: Inhibition of NE reuptake in rat brain synaptosome (3H-NE uptake); format: biochemical; conditions: for inhibition at 10 µM: read-out: NE reuptake percent inhibition
T1 construct: from tissue; host or cells: Wistar rat brain (procerebrum; crude synaptosomal supernatant)
T1 sequence (Q63380 1-617): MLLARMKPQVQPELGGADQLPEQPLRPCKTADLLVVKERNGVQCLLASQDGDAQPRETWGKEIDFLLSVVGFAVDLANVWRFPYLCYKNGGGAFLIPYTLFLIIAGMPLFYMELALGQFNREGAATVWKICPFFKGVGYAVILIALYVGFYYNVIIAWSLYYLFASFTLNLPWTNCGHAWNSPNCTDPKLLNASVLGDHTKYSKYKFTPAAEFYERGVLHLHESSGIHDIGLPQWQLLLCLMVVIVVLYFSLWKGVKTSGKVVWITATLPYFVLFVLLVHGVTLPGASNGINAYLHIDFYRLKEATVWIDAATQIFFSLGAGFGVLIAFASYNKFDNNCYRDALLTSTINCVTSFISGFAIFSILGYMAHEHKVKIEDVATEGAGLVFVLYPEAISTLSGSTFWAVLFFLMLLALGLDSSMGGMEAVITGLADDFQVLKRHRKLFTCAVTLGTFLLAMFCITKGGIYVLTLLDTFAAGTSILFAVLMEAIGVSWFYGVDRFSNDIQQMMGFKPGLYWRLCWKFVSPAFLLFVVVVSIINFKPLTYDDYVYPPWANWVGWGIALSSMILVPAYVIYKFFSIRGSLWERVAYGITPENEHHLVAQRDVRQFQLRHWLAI
Experimental: (§1) All the target compounds were evaluated for their inhibitory activity against the reuptake of 5-HT and NE at the cellular level. Rat brain tissue was used for the uptake test, which included ^3H-5-HT and ^3H-NE [15]. 1-[7,8-^3H]-Noradrenaline and 5-hydroxy-[^3H]-tryptamine trifluoroacetate were obtained from Amersham Corporation.
(§2) Adult male Wistar rats were used. Animals were killed by decapitation and the whole brain, with the exception of the brainstem and cerebellum, was quickly removed. The procerebrum region was prepared, weighed, and homogenized in 10 volumes of ice-cold 0.32 mol/L sucrose solution using a glass homogenizer. The homogenate was centrifuged at 1000× g and 4 °C for 10 min. The supernatant was decanted and used for the uptake experiments. […] For each assay, three tubes were incubated with the vehicle (20 µL) at 0 °C in an ice bath. After incubation, the tubes were immediately filtered with a cell harvester. The fiberglass filter membrane was washed three times with ice-cold saline, placed in a scintillation vial, and counted in liquid scintillation cocktail (4 mL). Active uptake was the difference between the counts per minute at 37 and 0 °C. The percent inhibition at each drug concentration was the mean of three measurements.

[2] = biological target: T2, 5-HT reuptake (5-HT transporter) (Rattus norvegicus, UniProt P31652); assay: Inhibition of 5-HT reuptake in rat brain synaptosome (3H-5-HT uptake); format: biochemical; conditions: for inhibition at 10 µM: read-out: 5-HT reuptake percent inhibition
T2 construct: from tissue; host or cells: Wistar rat brain (procerebrum; crude synaptosomal supernatant)
T2 sequence (P31652 whole entry): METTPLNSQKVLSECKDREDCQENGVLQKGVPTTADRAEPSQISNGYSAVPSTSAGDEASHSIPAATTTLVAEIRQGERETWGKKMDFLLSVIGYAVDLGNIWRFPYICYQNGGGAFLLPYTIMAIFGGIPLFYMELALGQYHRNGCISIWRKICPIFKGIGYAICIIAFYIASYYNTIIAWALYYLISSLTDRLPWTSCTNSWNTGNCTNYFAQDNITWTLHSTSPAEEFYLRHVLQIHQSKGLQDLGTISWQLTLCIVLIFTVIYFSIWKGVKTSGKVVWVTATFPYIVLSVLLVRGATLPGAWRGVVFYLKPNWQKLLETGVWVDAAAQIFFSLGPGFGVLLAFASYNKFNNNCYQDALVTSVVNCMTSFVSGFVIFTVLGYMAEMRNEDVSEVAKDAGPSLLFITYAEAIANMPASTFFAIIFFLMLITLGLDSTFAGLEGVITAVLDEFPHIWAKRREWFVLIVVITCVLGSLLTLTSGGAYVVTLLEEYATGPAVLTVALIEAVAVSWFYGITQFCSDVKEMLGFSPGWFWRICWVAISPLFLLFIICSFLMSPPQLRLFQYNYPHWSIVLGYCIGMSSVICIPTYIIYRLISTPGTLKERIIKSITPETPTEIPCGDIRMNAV
Experimental: as §1, §2

[3] = test system: rats; assay: Tail suspension test (TST) in rats; format: in vivo, rat; conditions: male rats, 30 mg/kg PO; for Immobility Time: 60 min after administration; for Rate of Shorten Time (%): compared with the negative control group
Experimental: Based on the in vitro results, compounds I-19, II-4, and II-5 were selected for the tail suspension test (TST) in rats. The TST has been used widely as a preclinical model for screening antidepressant activity, and it is sensitive to commercially available antidepressant drugs. In the assay, rats are suspended by tail and the time that the animal is immobile is recorded. The compounds were administered to male rats at a dose of 30 mg/kg (PO). […] In addition, the safety profile of compound II-5 was also explored with a preliminary acute toxicity test in mice at a single dose of 200 or 400 mg/kg (PO) (n = 6).
For two days before the formal experiment, the rats in each group were given doses orally once a day in the morning and in the afternoon. The rats were given doses orally once in each group in the formal experiment. After 60 min of administration, the rats were suspended head-down more than 50 cm from the ground with a 12-cm-long piece of insulating tape at a distance of 1 cm from the tail tip. The distance between adjacent rats was 15 cm. The immobility time of the rats was recorded. The rate of change in the immobility time of the rats in the test drug group and the positive control group was calculated and compared with the negative control group. Statistical analysis was performed using Prism 7.0 (GraphPad Software, San Diego, CA, USA).

Row | Compound | melting point | also measured
1 | Fc1ccccc1/C(=N\Cc1ccccc1)N1CCNCC1 (as salt: hydrochloride) [Compound I-7, (E)-N-((2-Fluorophenyl)(piperazin-1-yl)methylene)-1-phenylmethanaminehydrochloride] | 182 to 184 °C | –
2 | N#Cc1ccc(/C(=N\Cc2ccccc2)N2CCNCC2)cc1 (as salt: hydrochloride) [Compound I-8, (E)-4-((Benzylimino)(piperazin-1-yl)methyl)benzonitrilehydrochloride] | 205 to 207 °C | –
3 | N#Cc1cccc(/C(=N\Cc2ccccc2)N2CCNCC2)c1 (as salt: hydrochloride) [Compound I-9, (E)-3-((Benzylimino)(piperazin-1-yl)methyl)benzonitrilehydrochloride] | 190 to 192 °C | –
4 | Cc1ccc(/C(=N\Cc2ccccc2)N2CCNCC2)cc1 (as salt: hydrochloride) [Compound I-10, (E)-1-Phenyl-N-(piperazin-1-yl(p-tolyl)methylene)methanaminehydrochloride] | 172 to 174 °C | –
5 | O=[N+]([O-])c1ccc(/C(=N\Cc2ccccc2)N2CCNCC2)c(Cl)c1 (as salt: hydrochloride) [Compound I-11, (E)-N-((2-Chloro-4-nitrophenyl)(piperazin-1-yl)methylene)-1-phenylmethanaminehydrochloride] | 195 to 197 °C | –
6 | O=[N+]([O-])c1ccc(/C(=N\Cc2ccc(Cl)cc2)N2CCNCC2)cc1 (as salt: hydrochloride) [Compound I-12, (E)-1-(4-Chlorophenyl)-N-((4-nitrophenyl)(piperazin-1-yl)methylene)methanaminehydrochloride] | 172 to 174 °C | –
7 | Clc1ccc(C/N=C(\c2ccccc2Cl)N2CCNCC2)cc1 (as salt: hydrochloride) [Compound I-13, (E)-1-(4-Chlorophenyl)-N-((2-chlorophenyl)(piperazin-1-yl)methylene)methanaminehydrochloride] | 181 to 183 °C | –
8 | Clc1ccc(C/N=C(\c2cccc(Cl)c2)N2CCNCC2)cc1 (as salt: hydrochloride) [Compound I-14, (E)-1-(4-Chlorophenyl)-N-((3-chlorophenyl)(piperazin-1-yl)methylene)methanaminehydrochloride] | 218 to 220 °C | –
9 | Clc1ccc(C/N=C(\c2ccc(Cl)cc2)N2CCNCC2)cc1 (as salt: hydrochloride) [Compound I-15, (E)-1-(4-Chlorophenyl)-N-((4-chlorophenyl)(piperazin-1-yl)methylene)methanaminehydrochloride] | 157 to 159 °C | –
10 | Fc1ccc(/C(=N\Cc2ccc(Cl)cc2)N2CCNCC2)cc1 (as salt: hydrochloride) [Compound I-16, (E)-1-(4-Chlorophenyl)-N-((4-fluorophenyl)(piperazin-1-yl)methylene)methanaminehydrochloride] | 165 to 167 °C | –
11 | Fc1ccccc1/C(=N\Cc1ccc(Cl)cc1)N1CCNCC1 (as salt: hydrochloride) [Compound I-17, (E)-1-(4-Chlorophenyl)-N-((2-fluorophenyl)(piperazin-1-yl)methylene)methanaminehydrochloride] | 215 to 217 °C | –
12 | N#Cc1ccc(/C(=N\Cc2ccc(Cl)cc2)N2CCNCC2)cc1 (as salt: hydrochloride) [Compound I-18, (E)-1-(4-Chlorophenyl)-N-((4-cyanophenyl)(piperazin-1-yl)methylene)methanaminehydrochloride] | 180 to 182 °C | –
13 | Cc1ccc(/C(=N\Cc2ccc(Cl)cc2)N2CCNCC2)cc1 (as salt: hydrochloride) [Compound I-20, (E)-1-(4-Chlorophenyl)-N-(piperazin-1-yl(p-tolyl)methylene)methanaminehydrochloride] | 183 to 185 °C | –
14 | COc1ccc(C/N=C(\c2ccc([N+](=O)[O-])cc2)N2CCNCC2)cc1 (as salt: hydrochloride) [Compound I-21, (E)-1-(4-Methoxyphenyl)-N-((4-nitrophenyl)(piperazin-1-yl)methylene)methanaminehydrochloride] | 210 to 212 °C | –
15 | COc1ccc(/C(=N\Cc2ccccc2)N2CCNCC2)cc1.Cl [Compound I-1, (E)-N-((4-Methoxyphenyl)(piperazin-1-yl)methylene)-1-phenylmethanamine hydrochloride] | 195 to 197 °C | inhibition at 10 µM [1]: 67%; inhibition at 10 µM [2]: 65%
16 | N#Cc1cccc(/C(=N\Cc2ccc(Cl)cc2)N2CCNCC2)c1 [Compound I-19, (E)-1-(4-Chlorophenyl)-N-((3-cyanophenyl)(piperazin-1-yl)methylene)methanaminehydrochloride] | – | IC50 [1]: 560 nM; inhibition at 10 µM [1]: 78%; IC50 [2]: 830 nM; inhibition at 10 µM [2]: 82%; Immobility Time [3]: 34 ± 17 s; Rate of Shorten Time (%) [3]: 37.8%
17 | CNCC[C@H](Oc1cccc2ccccc12)c1cccs1 [Duloxetine, reference compound] | – | Immobility Time [3]: 11 ± 5 s; Rate of Shorten Time (%) [3]: 79.0%
18 | Fc1ccccc1/C(=N\Cc1cccc2ccccc12)N1CCNCC1 [II-4, (E)-N-((2-Fluorophenyl)(piperazin-1-yl)methylene)-1-(naphthalen-1-yl)methanaminehydrochloride] | – | IC50 [1]: 880 nM; inhibition at 10 µM [1]: 78%; IC50 [2]: 130 nM; inhibition at 10 µM [2]: 90%; Immobility Time [3]: 33 ± 19 s; Rate of Shorten Time (%) [3]: 39.7%

The next lines start with results.

Row | melting point | Compound | also measured
19 | 187 to 189 °C | c1ccc(/C(=N\Cc2cccc3ccccc23)N2CCNCC2)cc1 (as salt: hydrochloride) [II-1, (E)-1-(Naphthalen-1-yl)-N-(phenyl(piperazin-1-yl)methylene)methanaminehydrochloride] | –
20 | 202 to 204 °C | O=[N+]([O-])c1ccc(/C(=N\Cc2cccc3ccccc23)N2CCNCC2)cc1 (as salt: hydrochloride) [II-2, (E)-1-(Naphthalen-1-yl)-N-((4-nitrophenyl)(piperazin-1-yl)methylene)methanaminehydrochloride] | –
21 | 193 to 195 °C | Fc1ccc(/C(=N\Cc2cccc3ccccc23)N2CCNCC2)cc1 (as salt: hydrochloride) [II-3, (E)-N-((4-Fluorophenyl)(piperazin-1-yl)methylene)-1-(naphthalen-1-yl)methanaminehydrochloride] | –
22 | 198 to 200 °C | Clc1cccc(/C(=N\Cc2cccc3ccccc23)N2CCNCC2)c1 (as salt: hydrochloride) [II-6, (E)-N-((3-Chlorophenyl)(piperazin-1-yl)methylene)-1-(naphthalen-1-yl)methanaminehydrochloride] | –
23 | 210 to 212 °C | Clc1ccc(/C(=N\Cc2cccc3ccccc23)N2CCNCC2)cc1 (as salt: hydrochloride) [II-7, (E)-N-((4-Chlorophenyl)(piperazin-1-yl)methylene)-1-(naphthalen-1-yl)methanaminehydrochloride] | –
24 | 158 to 160 °C | N#Cc1ccc(/C(=N\Cc2cccc3ccccc23)N2CCNCC2)cc1 (as salt: hydrochloride) [II-8, (E)-4-(((Naphthalen-1-ylmethyl)imino)(piperazin-1-yl)methyl)benzonitrilehydrochloride] | –
25 | 168 to 170 °C | N#Cc1cccc(/C(=N\Cc2cccc3ccccc23)N2CCNCC2)c1 (as salt: hydrochloride) [II-9, (E)-3-(((Naphthalen-1-ylmethyl)imino)(piperazin-1-yl)methyl)benzonitrilehydrochloride] | –
26 | 178 to 180 °C | Cc1ccc(/C(=N\Cc2cccc3ccccc23)N2CCNCC2)cc1 (as salt: hydrochloride) [II-10, (E)-1-(Naphthalen-1-yl)-N-(piperazin-1-yl(p-tolyl)methylene)methanaminehydrochloride] | –
27 | 173 to 175 °C | O=[N+]([O-])c1cccc2c(/C(=N\Cc3ccccc3)N3CCNCC3)cccc12 (as salt: hydrochloride) [III-1, (E)-N-((5-Nitronaphthalen-1-yl)(piperazin-1-yl)methylene)-1-phenylmethanaminehydrochloride] | –
